In patent US10882864B2, “Process for preparing BTK inhibitors” (Genentech, Inc., priority 2016, dated 2021):
Values after ≈ are worked out from the molar mass of the structure shown. Read-outs that look alike come from different tables or passages of the source.

Assay: Solubility in various solvents (sonicated at 25° C., centrifuged, filtered, HPLC)
Assay type: physicochemical
Conditions: thermodynamic from solid, read-out: Solubility (mg/mL at 25° C.)
Description: (§1) The solubility of compound 141 was evaluated in various solvents. In the evaluation, a compound 141 sample was place into a 1.5 mL vial, 1 mL of the solvent was added, and the mixture was sonicated at 25° C. for 5 minutes. The mixture was then centrifuged, the upper supernatant was filtered through a microfilter, a filtrate aliquot was taken, diluted with acetonitrile, filtered, and injected into an HPLC column. The results are summarized in Example 8 Table 4 below where the purity of compound 141 was greater than 98 area % by HPLC.
as §1, with “compound 180” for “compound 141”, “was placed” for “was place”, “Example 9” for “Example 8”

[1] = organic solvent or mixture, solvent Acetone
[2] = organic solvent or mixture, solvent Acetonitrile
[3] = organic solvent or mixture, solvent Dichloromethane
[4] = organic solvent or mixture, solvent Dimethylformamide
[5] = organic solvent or mixture, solvent Ethanol
[6] = organic solvent or mixture, solvent Ethyl acetate
[7] = organic solvent or mixture, solvent Heptane
[8] = organic solvent or mixture, solvent Isopropanol
[9] = organic solvent or mixture, solvent Methanol
[10] = organic solvent or mixture, solvent Methyl tetrahydrofuran
[11] = organic solvent or mixture, solvent Petroleum ether
[12] = organic solvent or mixture, solvent Tetrahydrofuran
[13] = organic solvent or mixture, solvent Toluene
[14] = organic solvent or mixture, solvent tert-Butyl methyl ether

Row | Structure (SMILES) | solubility at 5 min [1] [mg/mL] | solubility at 5 min [2] [mg/mL] | solubility at 5 min [3] [mg/mL] | solubility at 5 min [4] [mg/mL] | solubility at 5 min [5] [mg/mL] | solubility at 5 min [6] [mg/mL] | solubility at 5 min [7] [mg/mL] | solubility at 5 min [8] [mg/mL] | solubility at 5 min [9] [mg/mL] | solubility at 5 min [10] [mg/mL] | solubility at 5 min [11] [mg/mL] | solubility at 5 min [12] [mg/mL] | solubility at 5 min [13] [mg/mL] | solubility at 5 min [14] [mg/mL] | solubility at 5 min (solvent Water) [mg/mL] | solubility at 5 min (organic solvent or mixture, solvent Dioxane) [mg/mL]
1 | C[C@H]1CN(C2COC2)CCN1c1ccc(N)nc1 [Compound 141] | 154 (≈ 619 mM) | 97.7 (≈ 393 mM) | 269 (≈ 1080 mM) | 200 (≈ 803 mM) | 154 (≈ 618 mM) | 82.3 (≈ 331 mM) | 0.32 (≈ 1.29 mM) | 222 (≈ 895 mM) | 221 (≈ 892 mM) | 83 (≈ 334 mM) | 0.26 (≈ 1.05 mM) | 175 (≈ 705 mM) | 20.6 (≈ 83 mM) | 7.39 (≈ 29.8 mM) | 30.7 (≈ 124 mM) | –
2 | C[C@H]1CN(C2COC2)CCN1c1ccc(Nc2cc(Br)cn(C)c2=O)nc1 [Compound 180] | 3.73 (≈ 8.59 mM) | 2.3 (≈ 5.3 mM) | 50.6 (≈ 116 mM) | 20.8 (≈ 47.9 mM) | 1.52 (≈ 3.5 mM) | 4.53 (≈ 10.4 mM) | 0.03 (≈ 0.0691 mM) | 2.65 (≈ 6.1 mM) | 1.35 (≈ 3.11 mM) | 7.19 (≈ 16.6 mM) | 0.03 (≈ 0.0691 mM) | 24 (≈ 55.3 mM) | 9.81 (≈ 22.6 mM) | 1.25 (≈ 2.88 mM) | 0.52 (≈ 1.2 mM) | 44.7 (≈ 103 mM)
